Test results: the supplement of paper PMC10920090

Tests used:
MDA-MB-231 [1] = assay: drug sensitivity score (DSS), cytotoxicity CellTox Green; higher = more cytotoxic; extreme values may be limits of the assay; conditions: 72 h
MDA-MB-231 [2] = assay: drug sensitivity score (DSS), cell viability CellTiter-Glo; higher = more sensitive; extreme values may be limits of the assay; conditions: 72 h
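Wherever drug sensitivity score (DSS), cytotoxicity CellTox Green is given: DSS summarises each dose–response curve by combining IC50, EC50, maximal inhibition and efficacy across drug concentrations.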

Structure (SMILES)	drug sensitivity score (MDA-MB-231 [1]; shRNA: shPPFIA1_1)	drug sensitivity score (MDA-MB-231 [1]; shRNA: shScramble)	drug sensitivity score (MDA-MB-231 [2]; shRNA: shPPFIA1_1)	drug sensitivity score (MDA-MB-231 [2]; shRNA: shScramble)
COc1cccc2cc(-c3nc([C@H]4CC[C@H](C(=O)O)CC4)n4ncnc(N)c34)[nH]c12 [OSI-027]	0 DSS	0 DSS	0 DSS	2.9 DSS
O=C(Nc1ccc(OC(F)(F)F)cc1)c1sccc1NCc1ccnc2ccccc12 [OSI-930]	0 DSS	0.9 DSS	4.5 DSS	8 DSS
CC(=O)c1cnc2ccc(-c3cc(Cl)c(O)c(Cl)c3)nc2c1N[C@H]1CC[C@H](CN(C)C)CC1 [OTSSP167]	0 DSS	0.2 DSS	22.4 DSS	9.1 DSS
Cc1sc2c(c1C)C(c1ccc(Cl)cc1)=N[C@@H](CC(=O)Nc1ccc(O)cc1)c1nnc(C)n1-2 [OTX015]	0 DSS	0 DSS	0 DSS	10.2 DSS
COC1=CC(c2cc3ccccc3[nH]2)=N/C1=C\c1[nH]c(C)cc1C [Obatoclax]	0 DSS	0 DSS	0 DSS	0 DSS
O=C(c1cc(Cc2n[nH]c(=O)c3ccccc23)ccc1F)N1CCN(C(=O)C2CC2)CC1 [Olaparib]	0 DSS	0 DSS	0.1 DSS	0.8 DSS
COC(=O)C[C@](O)(CCCC(C)(C)O)C(=O)O[C@@H]1C(OC)=C[C@]23CCCN2CCc2cc4c(cc2[C@H]13)OCO4 [Omacetaxine]	11.8 DSS	18.4 DSS	11.2 DSS	22.9 DSS
COc1ncc(-c2ccc3nccc(-c4ccnnc4)c3c2)cc1NS(=O)(=O)c1ccc(F)cc1F [Omipalisib]	0 DSS	0 DSS	0 DSS	10.9 DSS
CC(C)c1cc(C(=O)N2Cc3ccc(CN4CCN(C)CC4)cc3C2)c(O)cc1O [Onalespib]	0 DSS	2.6 DSS	13.6 DSS	10.6 DSS
COC[C@H](NC(=O)c1cnc(C)s1)C(=O)N[C@@H](COC)C(=O)N[C@@H](Cc1ccccc1)C(=O)[C@@]1(C)CO1 [Oprozomib]	17 DSS	16.8 DSS	11.4 DSS	11.5 DSS
Cc1[nH]c(/C=C2\C(=O)Nc3ccccc32)c(C)c1CCC(=O)O [Orantinib]	10.8 DSS	16.2 DSS	0 DSS	0 DSS
CNC(=O)c1ccc2cc([C@@]3(O)CCn4cncc43)ccc2c1 [Orteronel]	0 DSS	0 DSS	0 DSS	0 DSS
C=CC(=O)Nc1cc(Nc2nccc(-c3cn(C)c4ccccc34)n2)c(OC)cc1N(C)CCN(C)C [Osimertinib]	0 DSS	0 DSS	1.2 DSS	3.9 DSS
O=C(O)C(=O)O.[NH-][C@@H]1CCCC[C@H]1[NH-].[Pt+2] [Oxaliplatin]	0 DSS	0 DSS	0 DSS	2 DSS
C=CCc1cccc(/C=N/NC(=O)CN2CCN(Cc3ccccc3)CC2)c1O [PAC-1]	0 DSS	0 DSS	2.7 DSS	3.8 DSS
O=C(Nc1cccnc1)N1CCC(Cc2cccc(Oc3ccc(C(F)(F)F)cn3)c2)CC1 [PF-3845]	4 DSS	0.3 DSS	4.3 DSS	4 DSS
COc1ccccc1S(=O)(=O)Nc1ccc2c(c1)CN(C)C(=O)N2 [PFI-1]	0 DSS	0 DSS	1.4 DSS	4.4 DSS
CN1CCN(c2cc(C(=O)Nc3ccc4c(c3)-c3c(c(C(N)=O)nn3-c3ccc(F)cc3)CC4)c(Cl)cn2)CC1 [PHA 408]	5.2 DSS	6.9 DSS	4.2 DSS	6.3 DSS
CCn1nnc2c(N3CCOCC3)nc(-c3ccc(NC(=O)Nc4ccc(C(=O)N5CCN(C)CC5)cc4)cc3)nc21 [PKI-402]	0 DSS	0 DSS	1.1 DSS	9.4 DSS
O=C(Nc1cc(Cl)cc2c1[nH]c1cnccc12)c1cccnc1 [PS-1145]	0 DSS	0.3 DSS	0.9 DSS	0.9 DSS
COc1cc(Br)c(Nc2nc(-c3c(C)nc4ncccn34)cs2)c(Br)c1 [PTC-209]	0 DSS	0 DSS	0 DSS	7.5 DSS
CC(=O)O[C@H]1C(=O)[C@@]2(C)[C@H]([C@H](OC(=O)c3ccccc3)[C@]3(O)C[C@H](OC(=O)[C@H](O)[C@@H](NC(=O)c4ccccc4)c4ccccc4)C(C)=C1C3(C)C)[C@]1(OC(C)=O)CO[C@@H]1C[C@@H]2O [Paclitaxel]	8.8 DSS	9.2 DSS	0 DSS	12.8 DSS

Structure (SMILES)	drug sensitivity score (MDA-MB-231 [1]; shRNA: shPPFIA1_1)	drug sensitivity score (MDA-MB-231 [1]; shRNA: shScramble)	drug sensitivity score (MDA-MB-231 [2]; shRNA: shPPFIA1_1)	drug sensitivity score (MDA-MB-231 [2]; shRNA: shScramble)
C1=N/C2=N/c3ccc(OCCN4CCCC4)c(c3)COC/C=C/COCc3cccc(c3)C(=C1)N2 [Pacritinib]	1.6 DSS	0.6 DSS	2.4 DSS	6.2 DSS
CC(=O)c1c(C)c2cnc(Nc3ccc(N4CCNCC4)cn3)nc2n(C2CCCC2)c1=O [Palbociclib]	0 DSS	0 DSS	0 DSS	2.4 DSS
COc1ccc(COc2cc3oc(=O)c4cc(C(C)O)ccc4c3cc2OC)cc1 (stereo unspecified) [Palomid-529]	0 DSS	0 DSS	0 DSS	0 DSS
Cc1[nH]c2ccccc2c1CCNCc1ccc(/C=C/C(=O)NO)cc1 [Panobinostat]	11.6 DSS	11.4 DSS	10.9 DSS	14 DSS
C/C(=C\c1csc(C)n1)[C@@H]1C[C@@H]2O[C@]2(C)CCC[C@H](C)[C@H](O)[C@@H](C)C(=O)C(C)(C)[C@@H](O)CC(=O)O1 [Patupilone]	8.3 DSS	5.8 DSS	0 DSS	12.3 DSS
Cc1ccc(Nc2nccc(N(C)c3ccc4c(C)n(C)nc4c3)n2)cc1S(N)(=O)=O [Pazopanib]	0 DSS	0 DSS	2.7 DSS	7.9 DSS
CCOc1cc2ncc(C#N)c(Nc3ccc(F)c(Cl)c3)c2cc1NC(=O)/C=C/CN(C)C [Pelitinib]	2.7 DSS	0 DSS	14.9 DSS	21.1 DSS
Nc1nc2[nH]cc(CCc3ccc(C(=O)N[C@@H](CCC(=O)O)C(=O)O)cc3)c2c(=O)[nH]1 [Pemetrexed]	0 DSS	0 DSS	5.6 DSS	8.3 DSS
OC[C@H]1O[C@@H](n2cnc3c2N=CNC[C@H]3O)C[C@@H]1O [Pentostatin]	0 DSS	0 DSS	0.5 DSS	0.2 DSS
CCCCCCCCCCCCCCCCCCOP(=O)([O-])OC1CC[N+](C)(C)CC1 [Perifosine]	0.9 DSS	0 DSS	0 DSS	0.9 DSS
NS(=O)(=O)OC[C@@H]1C[C@@H](n2ccc3c(N[C@H]4CCc5ccccc54)ncnc32)C[C@@H]1O [Pevonedistat]	7.6 DSS	7 DSS	16.9 DSS	10.6 DSS
FC(F)(F)c1ccc(CNc2ccc(Cc3c[nH]c4ncc(Cl)cc34)cn2)cn1 [Pexidartinib]	0 DSS	0 DSS	0 DSS	0 DSS
CS(=O)(=O)N1CCN(Cc2cc3nc(-c4cccc5[nH]ncc45)nc(N4CCOCC4)c3s2)CC1 [Pictilisib]	0 DSS	0 DSS	0 DSS	2.9 DSS
COc1ccc(Cl)c(Nc2nc3ccccc3nc2NS(=O)(=O)c2cccc(NC(=O)C(C)(C)N)c2)c1 [Pilaralisib]	0.9 DSS	0 DSS	0 DSS	0.9 DSS
CC[C@@H]1C(=O)OC[C@@H]1Cc1cncn1C [Pilocarpine]	0 DSS	0 DSS	0 DSS	0 DSS
CC(C)N(C[C@H]1O[C@@H](n2cnc3c(N)ncnc32)[C@H](O)[C@@H]1O)[C@H]1C[C@@H](CCc2nc3cc(C(C)(C)C)ccc3[nH]2)C1 [Pinometostat]	0 DSS	0 DSS	0 DSS	0 DSS
O=C(CCBr)N1CCN(C(=O)CCBr)CC1 [Pipobroman]	0 DSS	0 DSS	0 DSS	0 DSS
NCCNc1ccc(NCCN)c2c1C(=O)c1ccncc1C2=O [Pixantrone]	0 DSS	0 DSS	3.1 DSS	0.4 DSS
c1cc(CN2CCCNCCNCCCNCC2)ccc1CN1CCCNCCNCCCNCC1 [Plerixafor]	0 DSS	0 DSS	0 DSS	0 DSS
CO[C@H](C(=O)[C@@H](O)[C@@H](C)O)[C@@H]1Cc2cc3cc(O[C@H]4C[C@@H](O[C@@H]5C[C@@H](O)[C@H](O)[C@@H](C)O5)[C@H](O)[C@@H](C)O4)c(C)c(O)c3c(O)c2C(=O)[C@H]1O[C@H]1C[C@@H](O[C@@H]2C[C@@H](O)[C@@H](O[C@@H]3C[C@](C)(O)[C@H](O)[C@@H](C)O3)[C@@H](C)O2)[C@H](O)[C@@H](C)O1 [Plicamycin]	8.5 DSS	7.1 DSS	6.2 DSS	11.6 DSS
Nc1cccc2c1C(=O)N(C1CCC(=O)NC1=O)C2=O (stereo unspecified) [Pomalidomide]	0 DSS	0 DSS	0 DSS	0 DSS
C=CC(=O)N1CCC(Oc2cc3c(Nc4ccc(Cl)c(Cl)c4F)ncnc3cc2OC)CC1 [Poziotinib]	0 DSS	0 DSS	3.1 DSS	0 DSS
